Measurements from BindingDB's records for patent US20240327385 (2024).

Target: T1, Renin (Homo sapiens, UniProt P00797)
T1 sequence (P00797 whole entry): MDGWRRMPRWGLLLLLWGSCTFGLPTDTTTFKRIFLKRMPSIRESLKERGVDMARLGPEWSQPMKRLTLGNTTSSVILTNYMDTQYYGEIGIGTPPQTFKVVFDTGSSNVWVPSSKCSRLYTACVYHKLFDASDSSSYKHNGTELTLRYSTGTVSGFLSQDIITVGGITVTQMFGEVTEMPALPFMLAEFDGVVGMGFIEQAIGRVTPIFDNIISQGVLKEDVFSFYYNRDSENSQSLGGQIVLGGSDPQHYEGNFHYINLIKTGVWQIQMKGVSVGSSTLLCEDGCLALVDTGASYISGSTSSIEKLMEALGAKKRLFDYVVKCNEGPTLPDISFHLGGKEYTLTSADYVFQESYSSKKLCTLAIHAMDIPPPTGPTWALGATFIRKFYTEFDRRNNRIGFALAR
Experiment: Inhibitory Effects on Human Renin Activity Assay
Protocol: Briefly, human recombinant renin (from the kit) was incubated with the compound of the disclosure or buffer for 30 min at 37° C. before substrate addition. Fluorescence intensity was measured at 530 nm after an incubation of 15 min at 37° C. Data was analyzed by Prism and fitted into a sigmodal curve for IC50 calculation.

IC50: 1.6 nM
SMILES: CO[C@H]1C[C@H](Nc2cc(C3CC3)cnc2C(=O)N(CC(C)C)C2CNCC(C(=O)N3CCOC(C)(C)C3)C2)C1 (stereo partly specified) [US20240327385, Example 8]
